Results on 26 molecules are retold here after PMC9736874, “Development of Hydroxamate Derivatives Containing a Pyrazoline Moiety as APN Inhibitors to Overcome Angiogenesis” (Molecules, 2022).

The target of series [1] is T1, porcine kidney aminopeptidase N (APN) (Sus scrofa, UniProt P15145).
T1 construct: purchased Enzo Life Sciences; host or cells: porcine kidney microsomes (tissue-derived)
T1 sequence (P15145 1-963): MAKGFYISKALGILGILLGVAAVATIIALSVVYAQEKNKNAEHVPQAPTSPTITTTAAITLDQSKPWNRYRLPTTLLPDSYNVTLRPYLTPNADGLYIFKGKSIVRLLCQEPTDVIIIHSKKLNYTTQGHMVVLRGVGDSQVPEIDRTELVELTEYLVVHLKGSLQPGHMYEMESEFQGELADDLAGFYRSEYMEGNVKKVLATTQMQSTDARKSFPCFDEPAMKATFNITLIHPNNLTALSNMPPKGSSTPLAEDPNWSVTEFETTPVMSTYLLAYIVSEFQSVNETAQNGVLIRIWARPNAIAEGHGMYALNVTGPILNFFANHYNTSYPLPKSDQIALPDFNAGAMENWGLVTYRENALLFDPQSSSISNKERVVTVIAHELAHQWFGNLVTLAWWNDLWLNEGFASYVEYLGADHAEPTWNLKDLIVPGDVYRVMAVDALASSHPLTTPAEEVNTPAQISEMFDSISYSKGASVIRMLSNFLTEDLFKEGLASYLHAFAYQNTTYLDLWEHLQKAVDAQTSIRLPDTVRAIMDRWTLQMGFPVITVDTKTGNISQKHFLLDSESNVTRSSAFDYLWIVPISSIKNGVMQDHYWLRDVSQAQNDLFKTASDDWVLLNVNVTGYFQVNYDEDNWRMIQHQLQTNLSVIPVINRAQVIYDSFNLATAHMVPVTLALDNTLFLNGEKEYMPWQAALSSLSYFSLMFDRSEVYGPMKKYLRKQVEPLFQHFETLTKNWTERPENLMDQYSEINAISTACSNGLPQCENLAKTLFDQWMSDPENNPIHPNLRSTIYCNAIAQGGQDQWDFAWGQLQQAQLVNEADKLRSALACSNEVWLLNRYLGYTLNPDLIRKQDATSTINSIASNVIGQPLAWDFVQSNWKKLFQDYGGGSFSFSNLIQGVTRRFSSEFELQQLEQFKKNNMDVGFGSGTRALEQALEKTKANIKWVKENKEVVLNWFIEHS
The series is described as follows: Enzymatic inhibition assay against APN in vitro (L-Leu-p-nitroanilide substrate). The format is biochemical. Particulars: soluble APN from porcine kidney microsomal, 37 °C, 30 min; triplicate, mean ± SD. The protocol: The enzymatic inhibitory activities of target compounds were evaluated using L-Leu-p-nitroanilide (Sigma-Aldrich, St. Louis, MO, USA) as substrate and soluble APN from porcine kidney microsomal (Enzo Life Sciences, Farmingdale, NY, USA) as enzyme. Firstly, the substrate was dissolved in DMSO to a concentration of 16 mmol/L and the enzyme was dissolved in buffer solution of 50 mM PBS (pH = 7.2) for a concentration of 0.15 IU/L. Subsequently, inhibitors (40 μL) and PBS (145 μL) were added into the 96-well plates, followed by the addition of substrate (5 μL) and enzyme (10 μL). After incubation at 37 °C for 30 min, the absorbance values were measured at 405 nm with a plate reader (Varioskan, Thermo Fisher Scientific, Waltham, MA, USA).

Regarding `CC(=O)N1N=C(c2ccccc2C)CC1c1ccccc1OCC(=O)NO` (stereo not shown) [Compound 14k, 2-(2-(1-Acetyl-3-(o-tolyl)-4,5-dihydro-1H-pyrazol-5-yl)phenoxy)-N-hydroxyacetamide], the melting point was 170 to 172 °C. Besides, inhibition in series [1] was half-maximal at 210 ± 10 nM (IC50). `CC(=O)N1N=C(c2ccccc2OCc2ccccc2)CC1c1ccccc1OCC(=O)NO` (stereo not shown) [Compound 14aa, 2-(2-(1-Acetyl-3-(2-(benzyloxy)phenyl)-4,5-dihydro-1H-pyrazol-5-yl)phenoxy)-N-hydroxyacetamide] registered a melting point of 162 to 164 °C. The molecule further gave a half-inhibitory concentration (IC50) in series [1] of 17 ± 1 nM.

For `CC(=O)N1N=C(c2ccccc2F)CC1c1ccccc1OCC(=O)NO` (stereo not shown) [Compound 14g, 2-(2-(1-Acetyl-3-(2-fluorophenyl)-4,5-dihydro-1H-pyrazol-5-yl)phenoxy)-N-hydroxy acetamide], the melting point was 176 to 178 °C. Also, in series [1], the concentration for half-maximal inhibition (IC50) worked out at 250 ± 10 nM. For `NC(=O)N1N=C(c2ccccc2OCc2cccc(Br)c2)CC1c1ccccc1OCC(=O)NO` (stereo not shown) [Compound 14ff, 3-(2-((3-Bromobenzyl)oxy)phenyl)-5-(2-(2-(hydroxyamino)-2-oxoethoxy)phenyl)-4,5-dihydro-1H-pyrazole-1-carboxamide], in that order: 120 to 122 °C and 58 ± 3 nM. The matching figures for `NC(=O)N1N=C(c2ccccc2I)CC1c1c(Br)cccc1OCC(=O)NO` (stereo not shown) [Compound 14x, 5-(2-Bromo-6-(2-(hydroxyamino)-2-oxoethoxy)phenyl)-3-(2-iodophenyl)-4,5-dihydro-1H-pyrazole-1-carboxamide]: 132 to 134 °C and 90 ± 5 nM. The matching figures for `COc1ccc(C2=NN(C(C)=O)C(c3ccccc3OCC(=O)NO)C2)cc1` (stereo not shown) [Compound 14f, 2-(2-(1-Acetyl-3-(4-methoxyphenyl)-4,5-dihydro-1H-pyrazol-5-yl)phenoxy)-N-hydroxy acetamide]: 120 to 122 °C and 3800 ± 200 nM. For `NC(=O)N1N=C(c2c(Cl)cccc2Cl)CC1c1ccccc1OCC(=O)NO` (stereo not shown) [Compound 13c, reference compound], inhibition in series [1] was half-maximal at 59 ± 2 nM (IC50). As for `CC(=O)N1N=C(c2ccccc2OCc2cccc(Br)c2)CC1c1ccccc1OCC(=O)NO` (stereo not shown) [Compound 14ee, 2-(2-(1-Acetyl-3-(2-((3-bromobenzyl)oxy)phenyl)-4,5-dihydro-1H-pyrazol-5-yl)phenoxy)-N-hydroxyacetamide], the melting point is 164 to 166 °C. This molecule also registered a 50% inhibitory concentration (IC50) in series [1] of 31 ± 2 nM. The matching figures for `CC(=O)N1N=C(c2ccccc2I)CC1c1ccc(Br)cc1OCC(=O)NO` (stereo not shown) [Compound 14s, 2-(2-(1-Acetyl-3-(2-iodophenyl)-4,5-dihydro-1H-pyrazol-5-yl)-5-bromophenoxy)-N-hydroxyacetamide]: 168 to 170 °C and 2100 ± 200 nM. In the case of `NC(=O)N1N=C(c2ccccc2I)CC1c1cc(Br)ccc1OCC(=O)NO` (stereo not shown) [Compound 14v, 5-(5-Bromo-2-(2-(hydroxyamino)-2-oxoethoxy)phenyl)-3-(2-iodophenyl)-4,5-dihydro-1H-pyrazole-1-carboxamide], the melting point was in the range of 202 to 204 °C. Moreover, in series [1], half-maximal inhibition (IC50) required 540 ± 40 nM. The matching figures for `COc1cccc(OC)c1C1=NN(C(C)=O)C(c2ccccc2OCC(=O)NO)C1` (stereo not shown) [Compound 14m, 2-(2-(1-Acetyl-3-(2,6-dimethoxyphenyl)-4,5-dihydro-1H-pyrazol-5-yl)phenoxy)-N-hydroxyacetamide]: 178 to 180 °C and 200 ± 10 nM. As for `CC(=O)N1N=C(c2ccccc2Br)CC1c1ccccc1OCC(=O)NO` (stereo not shown) [Compound 14a, 2-(2-(1-Acetyl-3-(2-bromophenyl)-4,5-dihydro-1H-pyrazol-5-yl)phenoxy)-N-hydroxy acetamide], the melting point lay in the range of 162 to 164 °C. Besides, the 50% inhibitory concentration (IC50) in series [1] was found to be 46 ± 3 nM. The matching figures for `NC(=O)N1N=C(c2ccccc2OCc2ccccc2)CC1c1ccccc1OCC(=O)NO` (stereo not shown) [Compound 14bb, 3-(2-(Benzyloxy)phenyl)-5-(2-(2-(hydroxyamino)-2-oxoethoxy)phenyl)-4,5-dihydro-1H-pyrazole-1-carboxamide]: 176 to 178 °C and 15 ± 1 nM.

`NC(=O)N1N=C(c2ccccc2OCc2ccc(Br)cc2)CC1c1ccccc1OCC(=O)NO` (stereo not shown) [Compound 14hh, 3-(2-((4-Bromobenzyl)oxy)phenyl)-5-(2-(2-(hydroxyamino)-2-oxoethoxy)phenyl)-4,5-dihydro-1H-pyrazole-1-carboxamide] had a melting point of 96 to 98 °C. The same molecule gave an IC50 in series [1] of 550 ± 40 nM. The molecule `CC(=O)N1N=C(c2ccccc2)CC1c1ccccc1OCC(=O)NO` (stereo not shown) [Compound 13a, reference compound] gave an IC50 in series [1] of 320 ± 10 nM. For `CC(=O)N1N=C(c2ccccc2I)CC1c1cc(Br)ccc1OCC(=O)NO` (stereo not shown) [Compound 14u, 2-(2-(1-Acetyl-3-(2-iodophenyl)-4,5-dihydro-1H-pyrazol-5-yl)-4-bromophenoxy)-N-hydroxyacetamide], the melting point lay within 106 to 108 °C. Besides, the IC50 in series [1] worked out at 370 ± 20 nM. For `COc1ccccc1C1=NN(C(C)=O)C(c2ccccc2OCC(=O)NO)C1` (stereo not shown) [Compound 14d, 2-(2-(1-Acetyl-3-(2-methoxyphenyl)-4,5-dihydro-1H-pyrazol-5-yl)phenoxy)-N-hydroxy acetamide], in that order: 170 to 172 °C and 320 ± 10 nM. For `NC(=O)N1N=C(c2ccccc2OCc2ccccc2Br)CC1c1ccccc1OCC(=O)NO` (stereo not shown) [Compound 14dd, 3-(2-((2-Bromobenzyl)oxy)phenyl)-5-(2-(2-(hydroxyamino)-2-oxoethoxy)phenyl)-4,5-dihydro-1H-pyrazole-1-carboxamide], in that order: 92 to 94 °C and 230 ± 10 nM. For `CC(=O)N1N=C(c2ccccc2OCc2ccc(Br)cc2)CC1c1ccccc1OCC(=O)NO` (stereo not shown) [Compound 14gg, 2-(2-(1-Acetyl-3-(2-((4-bromobenzyl)oxy)phenyl)-4,5-dihydro-1H-pyrazol-5-yl)phenoxy)-N-hydroxyacetamide], in that order: 96 to 98 °C and 560 ± 40 nM. Take `NC(=O)N1N=C(c2ccccc2I)CC1c1c(Cl)cccc1OCC(=O)NO` (stereo not shown) [Compound 14z, 5-(2-Chloro-6-(2-(hydroxyamino)-2-oxoethoxy)phenyl)-3-(2-iodophenyl)-4,5-dihydro-1H-pyrazole-1-carboxamide]: the melting point fell in the range of 190 to 192 °C. The same molecule came in with an IC50 in series [1] of 70 ± 3 nM. The matching figures for `COc1cccc(OC)c1C1=NN(C(N)=O)C(c2ccccc2OCC(=O)NO)C1` (stereo not shown) [Compound 14n, 3-(2,6-Dimethoxyphenyl)-5-(2-(2-(hydroxyamino)-2-oxoethoxy)phenyl)-4,5-dihydro-1H-pyrazole-1-carboxamide]: 212 to 214 °C and 440 ± 30 nM. The matching figures for `NC(=O)N1N=C(c2ccccc2I)CC1c1ccccc1OCC(=O)NO` (stereo not shown) [Compound 14j, 5-(2-(2-(Hydroxyamino)-2-oxoethoxy)phenyl)-3-(2-iodophenyl)-4,5-dihydro-1H-pyrazole-1-carboxamide]: 164 to 166 °C and 44 ± 3 nM. For `CC(=O)N1N=C(c2cccc3ccccc23)CC1c1ccccc1OCC(=O)NO` (stereo not shown) [Compound 14p, 2-(2-(1-Acetyl-3-(naphthalen-1-yl)-4,5-dihydro-1H-pyrazol-5-yl)phenoxy)-N-hydroxy acetamide], in that order: 198 to 200 °C and 310 ± 20 nM. `CC(=O)N1N=C(c2ccc(Br)cc2)CC1c1ccccc1OCC(=O)NO` (stereo not shown) [Compound 14c, 2-(2-(1-Acetyl-3-(4-bromophenyl)-4,5-dihydro-1H-pyrazol-5-yl)phenoxy)-N-hydroxy acetamide] came in with a melting point of 202 to 204 °C. This molecule also came in with an IC50 in series [1] of 4400 ± 300 nM. The matching figures for `COc1cccc(C2=NN(C(C)=O)C(c3ccccc3OCC(=O)NO)C2)c1` (stereo not shown) [Compound 14e, 2-(2-(1-Acetyl-3-(3-methoxyphenyl)-4,5-dihydro-1H-pyrazol-5-yl)phenoxy)-N-hydroxy acetamide]: 170 to 172 °C and 370 nM. `NC(=O)N1N=C(c2ccccc2)CC1c1ccccc1OCC(=O)NO` (stereo not shown) [Compound 13b, reference compound] registered an IC50 in series [1] of 160 ± 10 nM.
